Test results: US20220184071A1, “GEPOTIDACIN FOR USE IN THE TREATMENT OF BACTERIAL URINARY TRACT INFECTIONS” (GlaxoSmithKline Intellectual Property Development Limited, priority 2019, published 2022)
≈ marks a conversion by molar mass, not a printed value. Entries after “also recorded” stand apart in the source; their conditions may differ.

Columns and labels:
Shigella sonnei = assay: MIC by CLSI agar dilution, Example 1 Method 2; format: cell-based; conditions: n=64
Procedure: (§1) Antimicrobial activity was determined in a second study by […] using the CLSI recommended procedure in serial two-fold dilutions and the minimum inhibitory concentration (MIC) was determined as the lowest concentration of the compound that inhibited visible growth.
(§2) MICs were determined according to CLSI agar dilution guidelines.

[1] = test system: Klebsiella (Klebsiella oxytoca, Klebsiella variicola, Klebsiella pneumoniae); assay: MIC by CLSI agar dilution, Example 1 Method 2; format: cell-based; conditions: n = 55
Procedure: as §1, §2

[2] = test system: Proteus (Proteus mirabilis, Proteus penneri, Proteus hauseri); assay: MIC by CLSI agar dilution, Example 1 Method 2; format: cell-based; conditions: n = 56
Procedure: as §1, §2

[3] = Phase IIa safety and tolerability; format: in vivo, human
Procedure: This phase IIa single center study evaluated the safety, tolerability, pharmacokinetics, and efficacy of oral gepotidacin 1500 mg BID for 5 days in female subjects with acute cystitis. Clean catch mid-stream urine specimens were obtained for quantitative culture by standard methods. Urine samples were taken from all participants pre-treatment (baseline) and at all post-baseline visits. All urine samples were sent to a central laboratory (PPD Global Clinical Laboratories, Highland Heights, Ky., USA) for Gram stain, quantitative culture, pathogen identification and susceptibility testing. See FIG. 1 for participant disposition and study outline.
Serial blood and urine PK sampling were performed for the first dose of study treatment on Day 1 and for the time-matched dose on Day 4. Participants took all doses of gepotidacin with food and remained in the clinic to complete a total of 10 doses. Participants were instructed to return for the TOC (Day 10 to 13) and Follow-up (Day 28±3) Visits.

## O=c1ccc2ncc(=O)n3c2n1C[C@H]3CN1CCC(NCc2cc3c(cn2)OCCC3)CC1 [gepotidacin, (2R)-2-({4-[(3,4-dihydro-2H-pyrano[2,3-c]pyridin-6-ylmethyl)amino]-1-piperidinyl}methyl)-1,2-dihydro-3H,8H-2a,5,8a-triazaacenaphthylene-3,8-dione]
Shigella sonnei
  MIC90: 2 µg/mL (≈ 4.46 µM)
[1]
  MIC50: 16 µg/mL (≈ 35.7 µM)
  MIC90: 64 µg/mL (≈ 143 µM)
  Number of Isolates at Gepotidacin MIC 1 mg/L: 1
  Number of Isolates at Gepotidacin MIC 4 mg/L: 6
  Number of Isolates at Gepotidacin MIC 8 mg/L: 14
  Number of Isolates at Gepotidacin MIC ≥16 mg/L: 34
[2]
  MIC50: 8 µg/mL (≈ 17.8 µM)
  MIC90: 32 µg/mL (≈ 71.3 µM)
  Number of Isolates at Gepotidacin MIC 0.5 mg/L: 3
  Number of Isolates at Gepotidacin MIC 1 mg/L: 4
  Number of Isolates at Gepotidacin MIC 2 mg/L: 11
  Number of Isolates at Gepotidacin MIC 4 mg/L: 9
  Number of Isolates at Gepotidacin MIC 8 mg/L: 10
  Number of Isolates at Gepotidacin MIC ≥16 mg/L: 19
[3]; N = 22
  Back pain, n (%): 2 (9)
  Chest discomfort, n (%): 2 (9)
  Gastrointestinal disorders, n (%): 21 (95)
  General disorders and administration site conditions, n (%): 2 (9)
  Headache, n (%): 5 (23)
  Infections and infestations, n (%): 6 (27)
  Nervous system disorders, n (%): 5 (23)
  Viral upper respiratory tract infection, n (%): 2 (9)
  Vomiting, n (%): 5 (23)
  Vulvovaginal mycotic infection, n (%): 2 (9)
[3]; N = 22, 1500 mg BID 5 days
  Any adverse event, n (%): 21 (95)
[3]; female, human, in vivo, 5 days
  Musculoskeletal and connective tissue disorders, n (%): 3 (14)
[3]; in vivo
  safety laboratory parameters, vital signs, ECG: no clinically relevant trends; also recorded: no clinically significant changes
  withdrawals or study treatment discontinuations due to AEs: No withdrawal due to AE; also recorded: no withdrawals or study treatment discontinuations due to AEs
[3]; mild or moderate, not treatment limiting
  Episodes of vomiting considered drug related: 4 participants
[3]; onset at day 1, improving upon repeat dosing
  intensity of GI AEs: mild or moderate
[3]; oral 1500 mg BID for 5 days
  tolerability: tolerated with no dose-limiting AEs
